Earlier results in patent publication US12690594B2, “Apparatus and methods for dissolving carbon dioxide in water” (ECO-OXYGEN TECHNOLOGIES, LLC, priority 2023, dated 2026).

Tested on: dreissenid mussel
Details: laboratory and field studies; no concentration or exposure time printed

For `O=C=O` [carbon dioxide], the mortality is given as “successfully cause mortality” and the “rate of veliger byssogenesis (settlement and colonization)” value is given as “reduction in the rate of veliger byssogenesis”.
